Test results taken from patent publication US4053632A, “Compounds of spiro-amine type and methods for their use” (priority 1971, dated 1977).
“Also recorded” adds a separate entry of the source. Read-outs that look alike come from different tables or passages of the source.

Tests used:
l-Dopa response = assay: Dopa response potentiation test; type: in vivo, mouse
Description: This test is developed by G.M. Everett (Antidepressant drugs,[…] in groups of 3 are pretreated with Pargyline ®40 l mg/kg p.o. about 10-16 hours before the test. […] 1. piloerection, slight salivation, slight increased motor activity 2. piloerection, salivation, marked increased motor activity and irritability 3. piloerection, profuse salivation, marked irritability and reactivity, jumping, squeaking, fighting.

[1] = tested on: uptake of 5-HT (midbrain slices); assay: Inhibition of the uptake of tritiated 5-HT in vitro (brain slices); type: biochemical, mouse
[2] = tested on: uptake of noradrenaline (cortex slices); assay: Inhibition of the uptake of tritiated noradrenaline in vitro (brain slices); type: biochemical; details: dl-noradrenaline 10^-7 M
[3] = tested on: uptake of 5-HT (midbrain slices); assay: Inhibition of the uptake of tritiated 5-HT in vivo; parameters: species or system mouse; details: Mus musculus, ip, 0.5 h; i.p., in vivo; read-out: Inhibition (50 %) of uptake in vivo, 5-HT
Description: The drugs were administered intraperitoneally half an hour before the animals were killed and the midbrain was taken out and sliced and incubated in a mixture consisting of, per 100 mg of brain slices, 0.2 μmole of ^3 H-5-HT and 1 μmole of glucose in 2 ml of Krebs-Henseleit buffer, pH 7.4. The incubation time was 5 minutes with 5 minutes of preincubation before ^3 H-5-HT was added. The radioactive ^3 H-5-HT taken up in the slices was extracted with ethanol and the amount was determined by liquid scintillation. The dose producing 50 per cent decrease of the active uptake (ED50) was determined graphically from dose response curves. Active uptake is defined as that part of the radioactive uptake which is inhibited by a high concentration of cocaine. All doses were given at least to four animals.

[4] = tested on: uptake of noradrenaline (cortex slices); assay: Inhibition of the uptake of tritiated noradrenaline in vivo; details: for ED50: ip, read-out: Inhibition (50 %) of uptake in vivo, NA; for effectiveness in blocking the uptake of noradrenaline in vivo relative to imipramine: versus imipramine
Description: The animals were killed half or one hour after the administration of the drugs in vivo (i.p.). The slices, made from cortex, were preincubated for five minutes and incubated with 0.1 μmole per ml of ^3 H-noradrenaline for further five minutes. The incubation mixture consisted of 0.2 μmole of ^3 H-NA and the brain slices in 2 ml of Krebs-Henseleits buffer, pH 7.4. The radioactive ^3 H-NA taken up in the slices was extracted with ethanol and the amount was determined by liquid scintillation. The dose producing 50 per cent decrease of the active uptake (ED50) was determined graphically from dose response curves. At least four animals were used at each dose level.

in vivo = details: mouse
Description: (§1) The compounds were given by intravenous route to 3 mice. […] Seizures, gait, sedation and grip strength were recorded.
(§2) Acute toxicity was tested by the intraveneous, intraperitoneal and oral routes of administration. […] During the oral route a behavioral scoring system was used in order to relate changes in behavior to dose. The LD50 values were determined graphically from log dose -- response curves based on four doses with three animals per dose. Peripheral parasympatholytic effect was tested in mice by observing the mydriatic effect after intravenous injection (9) (four doses with three animals per dose). PD200 refers to the dose which increases the pupil width by 200%.

pupil width (mydriasis) [5] = assay: Peripheral anticholinergic (parasympatholytic) effect, mydriasis in mice; details: for Peripheral anti-cholinergic action PD200: i.v., dose increasing the pupil by 200%
Description: as §1, §2

5-HTP response = 5-HTP response potentiation test; type: in vivo, mouse; details: for minimal effective dose: Mus musculus, ip
Description: These small movements are quantitatively measured in an activity box, type Animex, which can distinguish between small and gross movements. The activity is measured during 20 minutes and only in the case the animals have a fullblown syndrome.

motor activity = assay: Motor activity in mice; type: in vivo, mouse; details: mice; for ED50: Mus musculus, 1 h; for sedation (motor activity) versus CPZ: in words
Description: The exploratory activity of mice was recorded in a locomotion cage in which the movements were counted each time the animals cross-circuits on electrical current in the bottom plate. […] The animals were tested individually. Groups of six mice were used and the mice were only used once. The activity was expressed in percent of the activity of control groups ran simultaneously.
Sedative activity was defined as suppression of normal motor activity. The motor activity in mice was automatically recorded in a locomotion cage in which the movements are counted each time the animal short-circuits an electrical current in the bottom plate. […] The animals were tested individually. Groups of six mice were used. The activity was expressed in percent of the activity of control groups run simultaneously.

pupil width (mydriasis) [6] = details: mouse, in vivo, iv, 10 min
Description: as §1, §2

mice = assay: Acute toxicity in mice; details: in words
Description: as §1, §2

[7] = tested on: conditioned avoidance response (CAR); assay: Conditioned avoidance response in rats; type: in vivo, rat; details: rat; for CAR CD50: i.p., 60 min; for effect on conditioned avoidance response: in words
Description: For this reason the conditioned avoidance test has been developed for initial screening of neuroleptics. Rats were trained to avoid electrical shock by jumping from one compartment to the other in a shuttle box. The conditioned stimulus consists of an auditory signal which after eight seconds was followed by the electrical shock. The rates were trained to a criterion of making eight out of ten responses correctly. The drugs were injected one hour before the test. The avoidance responses are expressed in percentage of those before administration. CD50 is the dose which reduces the avoidance response to 50% of control values.

[8] = Mus musculus, ip; read-out: Potentiation of l-Dopa, effective dose
[9] = ip, i.p., read-out: Motor activity ID50 (Table 4)

## CN(C)CCC=C1c2ccccc2CCc2ccccc21 [Amitriptyline, reference compound]
l-Dopa response; 20 mg/kg i.p. 4 hours before l-Dopa
  l-Dopa syndrome score: three

## CN(C)C1C=CC2(CC1)c1ccccc1C=Cc1ccccc12 (stereo not shown) [CPG 146]
[1]
  Inhibition (50 %) of uptake in vitro, 5-HT: 4 µg/mL
[2]
  Inhibition (50 %) of uptake in vitro, NA: 0.02 µg/mL
[3]
  ED50: > 40 mg/kg
[4]
  ED50: 1.7 mg/kg
  effectiveness in blocking the uptake of noradrenaline in vivo relative to imipramine: about three times as effective as imipramine
In vivo; iv
  LD50 at 24 h: 30 mg/kg
Pupil width (mydriasis) [5]
  Peripheral anti-cholinergic action PD200: 1 mg/kg

## CN(C)C1CCC2(CC1)c1ccccc1C=Cc1ccccc12 [CPG 147]
[1]
  Inhibition (50 %) of uptake in vitro, 5-HT: 4 µg/mL
[2]
  Inhibition (50 %) of uptake in vitro, NA: 0.05 µg/mL
[3]
  ED50: > 40 mg/kg
[4]
  ED50: 1.5 mg/kg
  effectiveness in blocking the uptake of noradrenaline in vivo relative to imipramine: about three times as effective as imipramine
5-HTP response
  minimal effective dose: > 25 mg/kg
l-Dopa response; [8]
  minimal effective dose: 2.5 mg/kg
Motor activity; read-out: Motor activity ID50
  ED50: 27 mg/kg
In vivo; iv
  LD50 at 24 h: 32 mg/kg
Pupil width (mydriasis) [5]
  Peripheral anti-cholinergic action PD200: 1 mg/kg

## CNC1CCC2(CC1)c1ccccc1C=Cc1ccccc12 [CPG 148]
[1]
  Inhibition (50 %) of uptake in vitro, 5-HT: 3 µg/mL
[2]
  Inhibition (50 %) of uptake in vitro, NA: 1.5 µg/mL
[3]
  ED50: > 40 mg/kg
[4]
  ED50: > 40 mg/kg
5-HTP response
  minimal effective dose: > 25 mg/kg
l-Dopa response; [8]
  minimal effective dose: > 10 mg/kg
Motor activity; read-out: Motor activity ID50
  ED50: 35 mg/kg
In vivo; iv
  LD50 at 24 h: 60 mg/kg
Pupil width (mydriasis) [5]
  Peripheral anti-cholinergic action PD200: 3.5 mg/kg

## NC1CCC2(CC1)c1ccccc1C=Cc1ccccc12 [CPG 191]
[1]
  Inhibition (50 %) of uptake in vitro, 5-HT: 2 µg/mL
[2]
  Inhibition (50 %) of uptake in vitro, NA: 1.5 µg/mL
[3]
  ED50: > 40 mg/kg
[4]
  ED50: > 40 mg/kg
5-HTP response
  minimal effective dose: > 25 mg/kg
l-Dopa response; [8]
  minimal effective dose: > 10 mg/kg
Motor activity; read-out: Motor activity ID50
  ED50: 53 mg/kg
Pupil width (mydriasis) [6]
  Peripheral anti-cholinergic action PD200: < 10 mg/kg
In vivo; iv
  LD50 at 24 h: 32 mg/kg

## CNC1C=CC2(CC1)c1ccccc1C=Cc1ccccc12 (stereo not shown) [CPG 264]
[1]
  Inhibition (50 %) of uptake in vitro, 5-HT: 1.3 µg/mL
[2]
  Inhibition (50 %) of uptake in vitro, NA: 0.3 µg/mL
[3]
  ED50: > 40 mg/kg
[4]
  ED50: 1.3 mg/kg
  effectiveness in blocking the uptake of noradrenaline in vivo relative to imipramine: about three times as effective as imipramine
5-HTP response
  minimal effective dose: > 25 mg/kg
l-Dopa response; [8]
  minimal effective dose: > 10 mg/kg
Motor activity; read-out: Motor activity ID50
  ED50: 13 mg/kg
In vivo; iv
  LD50 at 24 h: 25 mg/kg
Pupil width (mydriasis) [5]
  Peripheral anti-cholinergic action PD200: 2.5 mg/kg

## CN(C)CCCN1c2ccccc2CCc2ccccc21 [Imipramine, reference compound]
[1]
  Inhibition (50 %) of uptake in vitro, 5-HT: 0.1 µg/mL
[2]
  Inhibition (50 %) of uptake in vitro, NA: 0.06 µg/mL
[3]
  ED50: 24 mg/kg
[4]
  ED50: 6 mg/kg
5-HTP response
  minimal effective dose: 25 mg/kg
5-HTP response; reference, in words
  potentiation of dl-5-HTP: constantly potentiated dl-5-HTP
l-Dopa response; Mus musculus, ip, read-out: Potentiation of l-Dopa, effective dose
  minimal effective dose: 10 mg/kg
Motor activity; read-out: Motor activity ID50
  ED50: 45 mg/kg
Pupil width (mydriasis) [5]
  Peripheral anti-cholinergic action PD200: 13 mg/kg
Pupil width (mydriasis) [5]; in words
  anticholinergic effects: anticholinergic effects shared by imipramine

## CN(C)C1C=CC2(CC1)c1ccccc1C=Cc1ccc(Cl)cc12 (stereo not shown) [SIR 114]
[1]
  Inhibition (50 %) of uptake in vitro, 5-HT: 7 µg/mL
[2]
  Inhibition (50 %) of uptake in vitro, NA: 2.5 µg/mL
[3]
  ED50: > 40 mg/kg
[4]
  ED50: > 40 mg/kg
5-HTP response
  minimal effective dose: > 25 mg/kg
l-Dopa response; [8]
  minimal effective dose: > 10 mg/kg
Motor activity; read-out: Motor activity ID50
  ED50: 5.5 mg/kg
Motor activity; [9]
  ED50: 5.5 mg/kg
Motor activity
  sedation (motor activity) versus CPZ: caused sedation in the mice at about the same dose as CPZ
Pupil width (mydriasis) [6]
  PD200 (Table 4): 15 mg/kg
  Peripheral anti-cholinergic action PD200: 15 mg/kg
In vivo; ip
  LD50 at 24 h: 130 mg/kg
In vivo; iv
  LD50 at 24 h: 22 mg/kg
mice
  acute toxicity versus CPZ: intravenous toxicity in the same range as CPZ

## CN(C)C1CCC2(CC1)c1ccccc1CCc1ccc(Cl)cc12 (stereo not shown) [SIR 117]
[1]
  Inhibition (50 %) of uptake in vitro, 5-HT: 5 µg/mL
[2]
  Inhibition (50 %) of uptake in vitro, NA: 1.5 µg/mL
[3]
  ED50: > 40 mg/kg
[4]
  ED50: > 40 mg/kg
5-HTP response
  minimal effective dose: > 25 mg/kg
l-Dopa response; [8]
  minimal effective dose: > 10 mg/kg
Motor activity; read-out: Motor activity ID50
  ED50: 14 mg/kg
Motor activity; [9]
  ED50: 14 mg/kg
Motor activity
  sedation (motor activity) versus CPZ: somewhat less active
Pupil width (mydriasis) [6]
  PD200 (Table 4): 15 mg/kg
  Peripheral anti-cholinergic action PD200: 15 mg/kg
In vivo; iv
  LD50 at 24 h: 27 mg/kg
mice
  acute toxicity versus CPZ: intravenous toxicity in the same range as CPZ

## CN(C)C1CCC2(CC1)c1ccccc1C=Cc1ccc(Cl)cc12 (stereo not shown) [SIR 118]
[1]
  Inhibition (50 %) of uptake in vitro, 5-HT: 4 µg/mL
[2]
  Inhibition (50 %) of uptake in vitro, NA: 1.5 µg/mL
[3]
  ED50: > 40 mg/kg
[4]
  ED50: > 40 mg/kg
5-HTP response
  minimal effective dose: > 25 mg/kg
l-Dopa response; [8]
  minimal effective dose: > 10 mg/kg
Motor activity; read-out: Motor activity ID50
  ED50: 11 mg/kg
Motor activity; [9]
  ED50: 11 mg/kg
Motor activity
  sedation (motor activity) versus CPZ: somewhat less active
Pupil width (mydriasis) [6]
  Peripheral anti-cholinergic action PD200: 9 mg/kg
In vivo; iv
  LD50 at 24 h: 18 mg/kg
mice
  acute toxicity versus CPZ: intravenous toxicity in the same range as CPZ

## CN(C)C1C=CC2(CC1)c1ccccc1CCc1ccc(Cl)cc12 (stereo not shown) [SIR 124]
[7]
  CAR CD50: > 10 mg/kg
  effect on conditioned avoidance response: relatively weak effect on CAR

## CN(C)C1C=CC2(CC1)c1ccccc1CCc1ccc(Cl)cc12 (stereo not shown) [SIR 125]
[7]
  CAR CD50: < 2.5 mg/kg
  effect on conditioned avoidance response: more potent than the racemate SIR 109 and also more potent than CPZ; also recorded: more potent than both SIR 109 and chlorpromazine
[7]; listed as β-isomer
  effect on conditioned avoidance response: the biological activity mainly originates from the β-isomer
